This is an account of results in patent US8633200B2, “Inhibitors of human immunodeficiency virus replication” (priority 2010, dated 2014).

Structures can show the parent of a compound that is named as a salt.

The subject of the first experiment is recombinant NL-Rluc virus (NL4-3 with Renilla Luciferase gene) in MT-2 cells. As to the kind of experiment: Inhibition of HIV replication (NL-Rluc luciferase reporter virus, MT-2 cells). The format is cell-based, human immunodeficiency virus (HIV). The following applies: NL43, 120 h, read-out: Activity.
For `Cc1ccc(-c2c(C(OC(C)(C)C)C(=O)O)c(C)nc3cc(-c4ccccc4)nn23)cc1C` (stereo not shown) [Example 1, 2-tert-Butoxy-2-(7-(3,4-dimethylphenyl)-5-methyl-2-phenylpyrazolo[1,5-a]pyrimidin-6-yl)acetic acid, TFA salt], the EC50 was greater than 1 µM. Consider `Cc1nc2cc(-c3ccccc3)nn2c(-c2ccc3c(c2)CCC3)c1C(OC(C)(C)C)C(=O)O` (stereo not shown) [Example 2], for which the EC50 was greater than 1 µM. Same read-out and setting: the result for `Cc1nc2cc(-c3ccccc3)nn2c(-c2ccc3c(c2)CCCO3)c1C(OC(C)(C)C)C(=O)O` (stereo not shown) [Example 3] reads 0.1 to 1 µM; that for `Cc1nc2cc(-c3ccccc3)nn2c(-c2ccc(Cl)cc2)c1C(OC(C)(C)C)C(=O)O` (stereo not shown) [Example 4], greater than 1 µM; that for `Cc1nc2cc(-c3ccccc3)nn2c(-c2ccc3ccccc3c2)c1C(OC(C)(C)C)C(=O)O` (stereo not shown) [Example 5], greater than 1 µM. Same read-out and setting: the result for `Cc1nc2cc(-c3ccccc3)nn2c(-c2cccnc2)c1C(OC(C)(C)C)C(=O)O` (stereo not shown) [Example 6] reads greater than 1 µM; that for `Cc1nc2cc(-c3ccccc3)nn2c(-c2ccccc2OC(F)(F)F)c1C(OC(C)(C)C)C(=O)O` (stereo not shown) [Example 7], greater than 1 µM; that for `COc1cccc(-c2c(C(OC(C)(C)C)C(=O)O)c(C)nc3cc(-c4ccccc4)nn23)c1` (stereo not shown) [Example 8], greater than 1 µM. On the same count and under the same terms, the result for `COc1ccccc1-c1c(C(OC(C)(C)C)C(=O)O)c(C)nc2cc(-c3ccccc3)nn12` (stereo not shown) [Example 9] reads greater than 1 µM; that for `Cc1nc2cc(-c3ccccc3)nn2c(-c2ccccc2)c1C(OC(C)(C)C)C(=O)O` (stereo not shown) [Example 10], greater than 1 µM.

For `CC(=O)Nc1ccc(-c2c(C(OC(C)(C)C)C(=O)O)c(C)nc3cc(-c4ccccc4)nn23)cc1` (stereo not shown) [Example 11], the EC50 was greater than 1 µM. Regarding `COc1ccc(-c2c(C(OC(C)(C)C)C(=O)O)c(C)nc3cc(-c4ccccc4)nn23)cn1` (stereo not shown) [Example 12], the EC50 was greater than 1 µM. Same read-out and setting: the result for `Cc1nc2cc(-c3ccccc3)nn2c(-c2ccc(C#N)cc2)c1C(OC(C)(C)C)C(=O)O` (stereo not shown) [Example 13] reads greater than 1 µM; that for `Cc1ccccc1-c1c(C(OC(C)(C)C)C(=O)O)c(C)nc2cc(-c3ccccc3)nn12` (stereo not shown) [Example 14], greater than 1 µM; that for `Cc1nc2cc(-c3ccccc3)nn2c(-c2ccc(C(F)(F)F)cc2)c1C(OC(C)(C)C)C(=O)O` (stereo not shown) [Example 15], greater than 1 µM. Still for that read-out and setting: the result for `Cc1nc2cc(-c3ccccc3)nn2c(-c2cccc(Cl)c2)c1C(OC(C)(C)C)C(=O)O` (stereo not shown) [Example 16] reads greater than 1 µM; that for `Cc1cccc(-c2c(C(OC(C)(C)C)C(=O)O)c(C)nc3cc(-c4ccccc4)nn23)c1` (stereo not shown) [Example 17], greater than 1 µM; that for `Cc1nc2cc(-c3ccccc3)nn2c(-c2ccc(F)cc2F)c1C(OC(C)(C)C)C(=O)O` (stereo not shown) [Example 18], greater than 1 µM. Same read-out and setting: the result for `Cc1nc2cc(-c3ccccc3)nn2c(-c2ccc3c(c2)OCCO3)c1C(OC(C)(C)C)C(=O)O` (stereo not shown) [Example 19] reads greater than 1 µM; that for `Cc1nc2cc(-c3ccccc3)nn2c(-c2ccc(O)cc2)c1C(OC(C)(C)C)C(=O)O` (stereo not shown) [Example 20], greater than 1 µM. Regarding `Cc1nc2cc(-c3ccccc3)nn2c(-c2ccncc2)c1C(OC(C)(C)C)C(=O)O` (stereo not shown) [Example 21], the EC50 is greater than 1 µM. On the same count and under the same terms, the result for `COc1ccc(-c2c(C(OC(C)(C)C)C(=O)O)c(C)nc3cc(-c4ccccc4)nn23)cc1OC` (stereo not shown) [Example 22] reads greater than 1 µM; that for `Cc1nc2cc(-c3ccccc3)nn2c(-c2ccc(F)cc2)c1C(OC(C)(C)C)C(=O)O` (stereo not shown) [Example 23], greater than 1 µM; that for `Cc1nc2cc(-c3ccccc3)nn2c(-c2ccc(Oc3ccccc3)cc2)c1C(OC(C)(C)C)C(=O)O` (stereo not shown) [Example 24], greater than 1 µM. The same measure, in the same setting: the result for `Cc1nc2cc(-c3ccccc3)nn2c(-c2ccc(OC(F)(F)F)cc2)c1C(OC(C)(C)C)C(=O)O` (stereo not shown) [Example 25] reads greater than 1 µM. On the same count and under the same terms, the result for `Cc1nc2cc(-c3ccccc3)nn2c(-c2ccc3c(c2)CCO3)c1C(OC(C)(C)C)C(=O)O` (stereo not shown) [Example 26] reads 0.1 to 1 µM; that for `Cc1nc2cc(-c3ccccc3)nn2c(-c2ccc(Cl)cc2F)c1C(OC(C)(C)C)C(=O)O` (stereo not shown) [Example 27], greater than 1 µM; that for `Cc1nc2cc(-c3ccccc3)nn2c(-c2ccc3occc3c2)c1C(OC(C)(C)C)C(=O)O` (stereo not shown) [Example 28], greater than 1 µM. Turning to `COc1ccc(-c2c(C(OC(C)(C)C)C(=O)O)c(C)nc3cc(-c4ccccc4)nn23)cc1C(F)(F)F` (stereo not shown) [Example 29], the EC50 is greater than 1 µM. Turning to `Cc1nc2cc(-c3ccccc3)nn2c(-c2ccc3c(c2)OCO3)c1C(OC(C)(C)C)C(=O)O` (stereo not shown) [Example 30], the EC50 was greater than 1 µM. The same measure, in the same setting: the result for `Cc1nc2cc(-c3ccccc3)nn2c(-c2ccc(OCc3ccccc3)cc2)c1C(OC(C)(C)C)C(=O)O` (stereo not shown) [Example 31] reads greater than 1 µM; that for `COc1ccc(-c2c(C(OC(C)(C)C)C(=O)O)c(C)nc3cc(-c4ccccc4)nn23)cc1` (stereo not shown) [Example 32], greater than 1 µM. The same measure, in the same setting: the result for `COc1ccc(-c2c(C(OC(C)(C)C)C(=O)O)c(C)nc3cc(-c4ccccc4)nn23)cc1F` (stereo not shown) [Example 33] reads greater than 1 µM; that for `Cc1nc2cc(-c3ccccc3)nn2c(-c2ccc(OC(C)C)cc2)c1C(OC(C)(C)C)C(=O)O` (stereo not shown) [Example 34], greater than 1 µM; that for `COc1cc(F)c(-c2c(C(OC(C)(C)C)C(=O)O)c(C)nc3cc(-c4ccccc4)nn23)cc1F` (stereo not shown) [Example 35], greater than 1 µM. On the same count and under the same terms, the result for `Cc1nc2cc(-c3ccccc3)nn2c(-c2ccc3c(ccn3C)c2)c1C(OC(C)(C)C)C(=O)O` (stereo not shown) [Example 36] reads 0.1 to 1 µM. As for `Cc1nc2cc(-c3ccccc3)nn2c(-c2ccc3c4c(ccnc24)CCO3)c1C(OC(C)(C)C)C(=O)O` (stereo not shown) [Example 37], the EC50 is greater than 1 µM. On the same count and under the same terms, the result for `Cc1nc2cc(-c3ccccc3)nn2c(-c2cc(F)c3c(c2C)CCCO3)c1C(OC(C)(C)C)C(=O)O` (stereo not shown) [Example 38] reads 0.1 to 1 µM. Still for that read-out and setting: the result for `Cc1nc2cc(-c3ccccc3)nn2c(-c2cc(F)c3c(c2C)CCCO3)c1[C@H](OC(C)(C)C)C(=O)O` [Example 39, (2S)-2-tert-butoxy-2-(7-(8-fluoro-5-methylchroman-6-yl)-5-methyl-2-phenylpyrazolo[1,5-a]pyrimidin-6-yl)acetic acid] reads less than 0.1 µM. Still for that read-out and setting: the result for `Cc1nc2cc(-c3ccccc3)nn2c(-c2cc(F)c3c(c2C)CCCO3)c1[C@@H](OC(C)(C)C)C(=O)O` [Example 40, (2R)-2-tert-butoxy-2-(7-(8-fluoro-5-methylchroman-6-yl)-5-methyl-2-phenylpyrazolo[1,5-a]pyrimidin-6-yl)acetic acid] reads greater than 1 µM. As to `Cc1ccc(-c2c(C(OC(C)(C)C)C(=O)O)c(C)nc3cc(-c4ccccc4)nn23)cc1` (stereo not shown) [Example 41, 2-tert-Butoxy-2-(5-methyl-2-phenyl-7-p-tolylpyrazolo[1,5-a]pyrimidin-6-yl)acetic acid, TFA salt], the EC50 lay within 0.1 to 1 µM. Same read-out and setting: the result for `Cc1ccc(-c2c(C(OC(C)(C)C)C(=O)O)c(C)nc3ccnn23)cc1` (stereo not shown) [Example 42, 2-tert-Butoxy-2-(5-methyl-7-p-tolylpyrazolo[1,5-a]pyrimidin-6-yl)acetic acid, TFA salt] reads greater than 1 µM; that for `Cc1nc2cc(-c3ccccc3)nn2c(C)c1C(OC(C)(C)C)C(=O)O` (stereo not shown) [Example 43, 2-tert-Butoxy-2-(5,7-dimethyl-2-phenylpyrazolo[1,5-a]pyrimidin-6-yl)acetic acid, TFA salt], greater than 1 µM; that for `Cc1nc2c(-c3ccccc3)cnn2c(-c2cc(F)c3c(c2C)CCCO3)c1C(OC(C)(C)C)C(=O)O` (stereo not shown) [Example 44, 2-tert-Butoxy-2-(7-(8-fluoro-5-methylchroman-6-yl)-5-methyl-3-phenylpyrazolo[1,5-a]pyrimidin-6-yl)acetic acid, TFA salt], greater than 1 µM. The same measure, in the same setting: the result for `Cc1nc2c(-c3ccccc3)cnn2c(-c2ccc3c(c2)CCCO3)c1C(OC(C)(C)C)C(=O)O` (stereo not shown) [Example 45, 2-tert-Butoxy-2-(7-(chroman-6-yl)-5-methyl-3-phenylpyrazolo[1,5-a]pyrimidin-6-yl)acetic acid, TFA salt] reads 0.1 to 1 µM; that for `Cc1ccc(-c2cc3nc(C)c(C(OC(C)(C)C)C(=O)O)c(-c4cc(F)c5c(c4C)CCCO5)n3n2)cc1` (stereo not shown) [Example 46, 2-tert-Butoxy-2-(7-(8-fluoro-5-methylchroman-6-yl)-5-methyl-2-p-tolylpyrazolo[1,5-a]pyrimidin-6-yl)acetic acid, TFA salt], less than 0.1 µM. Same read-out and setting: the result for `Cc1ccc(-c2cc3nc(C)c(C(OC(C)(C)C)C(=O)O)c(-c4ccc5c(c4)CCCO5)n3n2)cc1` (stereo not shown) [Example 47] reads less than 0.1 µM; that for `Cc1nc2cc(-c3ccccc3)nn2c(-c2cc3ccccc3n2C)c1C(OC(C)(C)C)C(=O)O` (stereo not shown) [Example 48], greater than 1 µM; that for `CCC(C)c1ccc(-c2c(C(OC(C)(C)C)C(=O)O)c(C)nc3cc(-c4ccccc4)nn23)cc1` (stereo not shown) [Example 49], greater than 1 µM. In the case of `Cc1nc2cc(-c3ccccc3)nn2c(-c2ccc3ncccc3c2)c1C(OC(C)(C)C)C(=O)O` (stereo not shown) [Example 50], the EC50 was greater than 1 µM.

As to `Cc1nc2cc(-c3ccccc3)nn2c(-c2ccc3cc[nH]c3c2)c1C(OC(C)(C)C)C(=O)O` (stereo not shown) [Example 51], the EC50 is greater than 1 µM. Take `COc1ccc(-c2c(C(OC(C)(C)C)C(=O)O)c(C)nc3cc(-c4ccccc4)nn23)c(Cl)c1` (stereo not shown) [Example 52]: the EC50 was greater than 1 µM. The same measure, in the same setting: the result for `Cc1ccc(-c2c(C(OC(C)(C)C)C(=O)O)c(C)nc3cc(-c4ccccc4)nn23)c(Cl)c1` (stereo not shown) [Example 53] reads 0.1 to 1 µM; that for `Cc1ccc(-c2c(C(OC(C)(C)C)C(=O)O)c(C)nc3cc(-c4ccccc4)nn23)c(F)c1` (stereo not shown) [Example 54], 0.1 to 1 µM; that for `Cc1nc2cc(-c3ccccc3)nn2c(-c2ccccc2Cl)c1C(OC(C)(C)C)C(=O)O` (stereo not shown) [Example 55], greater than 1 µM.

Turning to `CCc1ccc(-c2c(C(OC(C)(C)C)C(=O)O)c(C)nc3cc(-c4ccccc4)nn23)cc1` (stereo not shown) [Example 56], the EC50 is greater than 1 µM.

Staying with this experiment, now noted: NL43, 120 h, read-out: EC50 μM.
`Cc1ccc(-c2c(C(OC(C)(C)C)C(=O)O)c(C)nc3cc(-c4ccccc4)nn23)cc1` (stereo not shown) [Example 41, 2-tert-Butoxy-2-(5-methyl-2-phenyl-7-p-tolylpyrazolo[1,5-a]pyrimidin-6-yl)acetic acid, TFA salt]: the EC50 is 0.6 µM. Still for that read-out and setting: the result for `Cc1ccc(-c2c(C(OC(C)(C)C)C(=O)O)c(C)nc3ccnn23)cc1` (stereo not shown) [Example 42, 2-tert-Butoxy-2-(5-methyl-7-p-tolylpyrazolo[1,5-a]pyrimidin-6-yl)acetic acid, TFA salt] reads 4.5 µM; that for `Cc1nc2cc(-c3ccccc3)nn2c(C)c1C(OC(C)(C)C)C(=O)O` (stereo not shown) [Example 43, 2-tert-Butoxy-2-(5,7-dimethyl-2-phenylpyrazolo[1,5-a]pyrimidin-6-yl)acetic acid, TFA salt], 40 µM.

Turning to `Cc1nc2c(-c3ccccc3)cnn2c(-c2cc(F)c3c(c2C)CCCO3)c1C(OC(C)(C)C)C(=O)O` (stereo not shown) [Example 44, 2-tert-Butoxy-2-(7-(8-fluoro-5-methylchroman-6-yl)-5-methyl-3-phenylpyrazolo[1,5-a]pyrimidin-6-yl)acetic acid, TFA salt], the EC50 worked out at 3 µM. Consider `Cc1nc2c(-c3ccccc3)cnn2c(-c2ccc3c(c2)CCCO3)c1C(OC(C)(C)C)C(=O)O` (stereo not shown) [Example 45, 2-tert-Butoxy-2-(7-(chroman-6-yl)-5-methyl-3-phenylpyrazolo[1,5-a]pyrimidin-6-yl)acetic acid, TFA salt], for which the EC50 stood at 0.24 µM. In the case of `Cc1ccc(-c2cc3nc(C)c(C(OC(C)(C)C)C(=O)O)c(-c4cc(F)c5c(c4C)CCCO5)n3n2)cc1` (stereo not shown) [Example 46, 2-tert-Butoxy-2-(7-(8-fluoro-5-methylchroman-6-yl)-5-methyl-2-p-tolylpyrazolo[1,5-a]pyrimidin-6-yl)acetic acid, TFA salt], the EC50 was 0.09 µM.

For the molecule `Cc1ccc(-c2cc3nc(C)c(C(OC(C)(C)C)C(=O)O)c(-c4ccc5c(c4)CCCO5)n3n2)cc1` (stereo not shown) [Example 47], the EC50 is 0.08 µM.

Regarding `Cc1nc2cc(-c3ccccc3)nn2c(-c2ccc3ncccc3c2)c1C(OC(C)(C)C)C(=O)O` (stereo not shown) [Example 50], the EC50 was 2.4 µM.
